{"source": "patent US5684026A", "about": "“Aminocyclopentane derivative” (priority 1994, dated 1997)", "key": {"[1]": {"molecular_target": "T1, α-Glucosidase (Baker's yeast, EC 3.2.1.20) (Saccharomyces cerevisiae, UniProt P53341)", "T1 construct": "purchased Sigma; host or cells: Baker's yeast", "T1 sequence (P53341 whole entry)": "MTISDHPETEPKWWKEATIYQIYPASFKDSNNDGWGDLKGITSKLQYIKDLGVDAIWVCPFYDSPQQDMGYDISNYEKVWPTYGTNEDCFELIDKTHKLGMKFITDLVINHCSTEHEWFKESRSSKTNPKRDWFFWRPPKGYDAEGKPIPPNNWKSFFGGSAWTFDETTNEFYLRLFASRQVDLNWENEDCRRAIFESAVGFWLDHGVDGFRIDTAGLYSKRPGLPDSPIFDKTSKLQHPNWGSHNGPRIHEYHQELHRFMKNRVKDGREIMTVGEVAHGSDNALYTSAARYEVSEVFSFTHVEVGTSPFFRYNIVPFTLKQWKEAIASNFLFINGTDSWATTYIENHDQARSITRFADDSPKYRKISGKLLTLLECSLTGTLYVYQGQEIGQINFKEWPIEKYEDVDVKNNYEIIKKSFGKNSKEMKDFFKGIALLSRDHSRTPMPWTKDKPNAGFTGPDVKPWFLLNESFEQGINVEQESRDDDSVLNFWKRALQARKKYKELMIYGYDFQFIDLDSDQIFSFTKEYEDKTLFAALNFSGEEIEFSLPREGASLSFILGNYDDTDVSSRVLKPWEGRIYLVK", "assay": "α-Glucosidase enzyme inhibition assay (p-nitrophenyl α-D-glucopyranoside)", "format": "biochemical", "conditions": "compared with deoxynojirimycin; summary of Tables 1 and 2", "procedure": "By using a 96-well microplate, the absorbance (at 405 nm) of liberated p- or o-nitrophenol was measured with a microplate reader (MPR-4Ai, manufactured by Tosoh Corporation).\nIncubation was carried out at 37° C. by using a natural incubator (Compact NIB-10, manufactured by Iwaki Glass Co., Ltd.).\nThe enzymes employed herein [α-glucosidase (Baker's yeast), β-glucosidase (Almonds), α-galactosidase (E. coli), β-galactosidase (E. coli) and β-galactosidase (Bovine Liver)] were all purchased from Sigma.\nThe substrates (p- or o-nitrophenylglycoside) of these enzymes were all purchased from Sigma.\n1) α-Glucosidase (Baker's yeast, EC 3.2.1.20) [described in H. Halvorson and L. Ellias, Biochim. Biophys. Acta, 30, 28-40 (1958)]\nInto each well were introduced an aqueous solution of a sample (1 μl), a 0.66 mM solution of p-nitrophenyl α-D-glucopyranoside in a buffer (98 μl) and a (0.4 mg/ml) enzyme solution in the buffer (1 μl) to give a total volume of 100 μl. After incubating at 37° C. for 30 minutes, the reaction was ceased by adding a 1M aqueous solution of sodium carbonate (100 μl). Then the absorbance (A405) of p-nitrophenol liberated by this enzyme reaction was measured. To give the blank absorbance (Ablank), the sample (1 μl) and the substrate (99 μl) were incubated in the same manner and an aqueous solution of sodium carbonate (100 μl) was added followed by the measurement of the absorbance. […] The sample at each concentration, the blank and the control were treated each in two wells at the same time. As the buffer, a 0.1M phosphate buffer solution (pH 6.8, prepared from KH2 PO4 and K2 HPO4) was employed."}, "[2]": {"molecular_target": "T2, α-glucosidase I (Baker's yeast) (Saccharomyces cerevisiae, UniProt P53008)", "T2 construct": "made in house; host or cells: Baker's yeast (native enzyme, prepared by the cited method)", "T2 sequence (P53008 25-833 limits assumed)": "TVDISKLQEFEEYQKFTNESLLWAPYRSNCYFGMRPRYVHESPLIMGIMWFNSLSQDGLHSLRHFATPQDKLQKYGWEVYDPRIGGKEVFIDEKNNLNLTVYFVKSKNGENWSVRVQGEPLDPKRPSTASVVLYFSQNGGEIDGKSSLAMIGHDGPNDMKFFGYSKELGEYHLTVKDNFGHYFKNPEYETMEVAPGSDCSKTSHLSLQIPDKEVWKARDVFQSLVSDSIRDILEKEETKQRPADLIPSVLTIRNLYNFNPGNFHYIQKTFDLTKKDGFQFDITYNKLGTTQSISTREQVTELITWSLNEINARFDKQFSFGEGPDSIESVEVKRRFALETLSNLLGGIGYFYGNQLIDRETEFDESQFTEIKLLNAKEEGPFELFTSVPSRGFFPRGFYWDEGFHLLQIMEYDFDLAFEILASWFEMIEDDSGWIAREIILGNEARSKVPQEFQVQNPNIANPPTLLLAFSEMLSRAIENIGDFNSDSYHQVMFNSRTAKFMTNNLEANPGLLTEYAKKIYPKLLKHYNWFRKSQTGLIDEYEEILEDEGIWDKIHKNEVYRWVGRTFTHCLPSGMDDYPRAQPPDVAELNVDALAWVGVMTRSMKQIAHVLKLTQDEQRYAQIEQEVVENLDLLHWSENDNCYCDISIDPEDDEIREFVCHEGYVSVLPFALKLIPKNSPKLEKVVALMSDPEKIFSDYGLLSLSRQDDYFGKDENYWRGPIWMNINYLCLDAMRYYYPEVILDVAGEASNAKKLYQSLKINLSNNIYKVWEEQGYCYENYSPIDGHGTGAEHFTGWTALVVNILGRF", "assay": "Inhibitory activity on α-glucosidase I (Ki)", "format": "biochemical", "conditions": "α-glucosidase I, substrate 0.25-4.0 mM, 37° C., 1 hour; read-out: Ki", "procedure": "The α-glucosidase I (Baker's yeast) and its substrate (α-D-Glcl→2α-D-Glcl→3α-D-Glc-O(CH2)6 COOCH3) employed herein were prepared in accordance with the method of I. Neverova et al., Anal. Biochem., 222, 190-196 (1994).\nThe following measurements were performed by the methods described in this literature.\nNamely, 25 μl of a buffer solution containing α-glucosidase I was added to a microtube containing the above-mentioned sample and the substrate (α-D-Glcl→2α-D-Glcl→3α-D-Glc-O(CH2)6 COOCH3). After incubating at 37° C. for 1 hour, a 1.25M tris hydrochloride buffer solution (pH 7.6, 25 μl) was added to thereby cease .the reaction. Then the reaction mixture was transferred onto a microplate followed by the addition of 250 μl of a reaction buffer solution [developing solution; 1M tris hydrochloride buffer solution (pH 7.2) containing glucose oxidase (5 units/ml, manufactured by Sigma), horseradish peroxidase (1 purpurogallin units, manufactured by Sigma) and o-dianisidine dihydrochloride (40 μg/ml)]. Then the mixture was incubated at 37° C. for 30 minutes or until an increase in the absorbance attained a plateau. Then the absorbance (A450-650) of the o-dianisidine formed and oxidized by this enzyme reaction was measured. As a blank, the above reaction was repeated but adding neither the above-mentioned sample nor substrate and the absorbance was measured. Also, the above-mentioned reaction buffer solution was added to D-glucose of a known concentration and the resulting mixture was incubated followed by the measurement of the absorbance to thereby examine a relationship between D-glucose concentration and absorbance. Each measurement was effected in two wells at the same time.\nBased on the above-mentioned relationship between D-glucose concentration and absorbance, the amount of glucose liberated from the substrate due to the enzyme reaction of α-glucosidase I in the presence of the sample was determined. From the result thus obtained, Km was determined and then Ki was determined from the sample amount and the Km value."}}, "data": [{"smiles": "OC[C@@]12OC(Nc3ccccc3)=N[C@@H]1[C@H](O)[C@@H](O)[C@@H]2O", "note": "[Compound 1-2L, (1S,5R,6S,7R,8S)-1-hydroxymethyl-3-phenylamino-2-oxa-4-azabicyclo[3.3.0]oct-3-ene-6,7,8-triol]", "values": [{"measurement": "inhibitory activity against α-glucosidase (in words)", "setting": "[1]", "result": "remarkably strong inhibitory activities"}, {"measurement": "Ki", "setting": "[2]", "result": 51, "unit": "µM"}]}]}
